Test results: patent publication US20240252576A1, “Application Method of Radix Paeoniae Alba and Dendrobium Officinale for Preparing Drug for Treatment of Hypertension” (Hangzhou Danhe Pharmaceutical Co., Ltd., priority 2018, published 2024)

Assays:
[1] = test system: hereditary hypertension rats (SHR); assay: Experiment 1: hypotensive effect of alcohol-water dual-extraction of Radix Paeoniae Alba on SHR, tail arterial blood pressure; assay type: in vivo, rat; details: 15 mg/Kg body weight
Excerpt: Rats: old age (over 48 weeks old) hereditary hypertension rats (SHR) and the normal controls were Wistar rats. Rat blood pressure measurement: BP-98 A type non-invasive tail arterial blood pressure measuring instrument, Softron Co., Ltd. (Japan). Grouping treatment: All rats were adaptively fed for a week, measured with blood pressure and weight, and set into groups. SHR rats were divided into alcohol-water dual-extraction of Radix Paeoniae Alba large dosage group for the dosage of 3.2 g/kg body weight, alcohol-water dual-extraction of Radix Paeoniae Alba medium dosage group for the dosage of 0.8 g/kg body weight, alcohol-water dual-extraction of Radix Paeoniae Alba small dosage group for the dosage of 0.2 g/kg body weight, alcohol extraction of Radix Paeoniae Alba group for the dosage of 0.8 g/kg body weight, water extraction of Radix Paeoniae Alba group for the dosage of 0.8 g/kg body weight, Radix Paeoniae Alba powder group for the dosage of 0.8 g/kg body weight; utilizing gastric infusion; hypertension model control group receives equal amount of physiological saline; Irbesartan control group receives 15 mg/Kg body weight of Irbesartan; and normal control group receives equal amount of physiological saline. Each group has 8 rats. The treatment last for 3 weeks (multiple of 3-12 weeks of treatments are performed, the results can be repeated, and typical experimental results are reported below). Blood pressure measurement: The Rats were pre-heated to 38° C. for 5-10 mins to avoid less blood flow of the tail that affects the pressure measurement. Three measurements are continuously carried out as the rat was in an awake and quiet state. The average value of the 3 measurements was considered as the blood pressure of the rat.

[2] = test system: hereditary hypertension rats (SHR); assay: Experiment 2: hypotensive effect of the sample of the Embodiment 1 on SHR, tail arterial blood pressure; assay type: in vivo, rat; details: 15 mg/Kg body weight
Excerpt: Rats: old age (over 48 weeks old) hereditary hypertension rats (SHR) and the normal controls were Wistar rats. Rat blood pressure measurement: BP-98 A type non-invasive tail arterial blood pressure measuring instrument, Softron Co., Ltd. (Japan). 1. Grouping treatment: All rats were adaptively fed for a week, measured with blood pressure and weight, and set into groups. SHR rats were grouped: sample of the Embodiment 1 (alcohol-water dual-extraction of Radix Paeoniae Alba with Dendrobium Officinale powder added)-large dosage group for the dosage of 3.5 g/kg body weight, sample of the Embodiment 1-medium dosage group for the dosage of 1.4 g/kg body weight, sample of the Embodiment 1-small dosage group for the dosage of 0.35 g/kg body weight, Dendrobium Officinale powder for the dosage of raw medicine of 0.8 g/kg body weight (which is the same as the raw medicine amount of the Dendrobium Officinale powder (0.8 g/kg body weight) contained in 1.4 g/Kg body weight of the sample of the Embodiment 1), alcohol-water dual-extraction of Radix Paeoniae Alba for the dosage of raw medicine of 0.6 g/kg body weight (which is the same as the raw medicine amount of the Radix Paeoniae Alba (0.6 g/kg body weight) contained in 1.4 g/Kg body weight of the sample of the Embodiment 1); utilizing gastric infusion; hypertension model control group receives equal amount of physiological saline; Irbesartan control group receives 15 mg/Kg body weight of Irbesartan; and normal control group receives equal amount of physiological saline. Each group has 8 rats. The treatment last for 3 weeks (multiple of 3-12 weeks of treatments are performed, the results can be repeated, and typical experimental results are reported below). 2. Blood pressure measurement: The Rats were pre-heated to 38° C. for 5-10 mins to avoid less blood flow of the tail that affects the pressure measurement. Three measurements are continuously carried out as the rat was in an awake and quiet state. The average value of the 3 measurements was considered as the blood pressure of the rat.

[3] = test system: adult sitting and lying blood pressure; assay: Clinical test data on the instructions of Irbesartan (Aprovel); assay type: in vivo, human; details: 150-300 mg daily for adults
[4] = test system: adult sitting and lying blood pressure; details: adult daily dosage of 150-300 mg, cited from earlier work
normal Wistar rat = assay: Experiment 3: blood pressure effect of the sample of the Embodiment 1 on normal rats; assay type: in vivo; details: 5 mg medicine/kg body weight; for diastolic pressure / systolic pressure: normal Wistar rats
Method: Rat: 12 Weeks Old Normal Wistar Rat.
Rat blood pressure measurement: BP-98 A type non-invasive tail arterial blood pressure measuring instrument, Softron Co., Ltd. (Japan).
Grouping treatment: All rats were adaptively fed for a week, measured with blood pressure and weight, and set into groups. […] Ten rats for each group, treating for 2 weeks.
Blood pressure measurement: The Rats were pre-heated to 38° C. for 5-10 mins to avoid less blood flow of the tail that affects the pressure measurement. Three measurements are continuously carried out as the rat was in an awake and quiet state. The average value of the 3 measurements was considered as the blood pressure of the rat. The blood pressure is measured prior to the treatment and 2 hours after each administration every week.

[5] = Treated for 1 Week, 2 hours after administration
[6] = Treated for 2 Weeks, 2 hours after administration
[7] = Treated for 3 Weeks, 2 hours after administration
[8] = Treat 3 weeks, 24 hrs, 15 mg/kg
[9] = sitting and lying blood pressure

Q: For `CCCCC1=NC2(CCCC2)C(=O)N1Cc1ccc(-c2ccccc2-c2nnn[nH]2)cc1` [Irbesartan], which diastolic pressure ([1]; Before Treatment) is on record?
A: 166.7 ± 4.21 ^ mmHg

Q: What about the systolic pressure ([1]; Before Treatment) of the same compound?
A: 215.2 ± 4.45 ^ mmHg

Q: And the diastolic pressure ([1]; First Treated)?
A: 155.2 ± 3.25 mmHg

Q: And the systolic pressure ([1]; First Treated)?
A: 181.6 ± 3.12 mmHg

Q: What about the diastolic pressure [1, 5] of the same compound?
A: 150.8 ± 2.89 mmHg

Q: And the systolic pressure [1, 5]?
A: 180.4 ± 3.56 mmHg

Q: What about the diastolic pressure [1, 6] of the same compound?
A: 151.8 ± 2.71 mmHg

Q: What about the systolic pressure [1, 6] of the same compound?
A: 178.6 ± 2.04 mmHg

Q: What about the diastolic pressure [1, 7] of the same compound?
A: 152.9 ± 2.89 mmHg

Q: What about the systolic pressure [1, 7] of the same compound?
A: 177.8 ± 2.12 mmHg

Q: And the diastolic pressure ([2]; Before Treatment)?
A: 166.7 ± 4.21 ^ mmHg

Q: What about the systolic pressure ([2]; Before Treatment) of the same compound?
A: 215.3 ± 5.87 ^ mmHg

Q: And the diastolic pressure ([2]; Treat 1 time, 2 hrs)?
A: 150.1 ± 3.25 mmHg

Q: What about the systolic pressure ([2]; Treat 1 time, 2 hrs) of the same compound?
A: 182.4 ± 3.89 mmHg

Q: And the diastolic pressure ([2]; Treat 1 time, 24 hrs)?
A: 156.6 ± 3.57^Δ mmHg

Q: And the systolic pressure ([2]; Treat 1 time, 24 hrs)?
A: 198.7 ± 3.61 mmHg

Q: What about the diastolic pressure ([2]; Treat 1 week, 2 hrs) of the same compound?
A: 149.7 ± 2.36 mmHg

Q: What about the systolic pressure ([2]; Treat 1 week, 2 hrs) of the same compound?
A: 181.2 ± 3.34 mmHg

Q: And the diastolic pressure ([2]; Treat 1 week, 24 hrs)?
A: 155.3 ± 2.36 mmHg

Q: And the systolic pressure ([2]; Treat 1 week, 24 hrs)?
A: 197.8 ± 2.87 mmHg

Q: What about the diastolic pressure ([2]; Treat 2 weeks, 2 hrs) of the same compound?
A: 147.4 ± 3.46 mmHg

Q: What about the systolic pressure ([2]; Treat 2 weeks, 2 hrs) of the same compound?
A: 177.5 ± 2.23 mmHg

Q: And the diastolic pressure ([2]; Treat 2 weeks, 24 hrs)?
A: 156.2 ± 3.25 mmHg

Q: And the systolic pressure ([2]; Treat 2 weeks, 24 hrs)?
A: 199.9 ± 2.36 mmHg

Q: And the diastolic pressure ([2]; Treat 3 weeks, 2 hrs, 15 mg/kg)?
A: 149.5±3.24 mmHg

Q: And the systolic pressure ([2]; Treat 3 weeks, 2 hrs, 15 mg/kg)?
A: 178.9±3.87 mmHg

Q: And the diastolic pressure [2, 8]?
A: 154.1±2.08 mmHg

Q: What about the systolic pressure [2, 8] of the same compound?
A: 198.7±2.24 mmHg

Q: And the “hypotensive extent in the hypotensive peak, diastolic pressure” value ([3]; calculated from intermediate values 6.5 mmHg/0.7)?
A: 9.29 mmHg

Q: And the “hypotensive extent in the hypotensive peak, systolic pressure” value ([3]; calculated from intermediate values 10.5 mmHg/0.7)?
A: 15.00 mmHg

Q: And the “ratio of the hypotensive valley and peak” value [4]?
A: 60-80%

Q: What about the “average hypotensive valley value, diastolic” value [4, 9] of the same compound?
A: 5-8 mmHg

Q: And the “average hypotensive valley value, systolic” value [4, 9]?
A: 8-13 mmHg

Q: With `CCOC(=O)C1=C(COCCN)NC(C)=C(C(=O)OC)C1c1ccccc1Cl` (stereo not shown) [Norvasc, amlodipine besylate] as the compound, how does the “hypotensive effect to the normal blood pressure rats” value (normal Wistar rat) read?
A: triggered relatively great hypotensive effect

Q: And the diastolic pressure (normal Wistar rat; Before Treatment)?
A: 99.2 ± 4.87 mmHg

Q: And the systolic pressure (normal Wistar rat; Before Treatment)?
A: 137.6 ± 5.46 mmHg

Q: What about the diastolic pressure (normal Wistar rat; [5]) of the same compound?
A: 71.8 ± 3.76 mmHg

Q: And the systolic pressure (normal Wistar rat; [5])?
A: 95.7 ± 4.69 mmHg

Q: What about the diastolic pressure (normal Wistar rat; [6]) of the same compound?
A: 74.5±2.76 mmHg

Q: And the systolic pressure (normal Wistar rat; [6])?
A: 99.2±5.75 mmHg
